Laboratory results from patent US7968570B2, “Isoindolone compounds and their use as metabotropic glutamate receptor potentiators” (AstraZeneca AB, priority 2004, dated 2011).
Like-named read-outs stand apart in the source and are kept apart here.

Molecular target: T1, human mGluR2 receptor (Homo sapiens, UniProt Q14416)
T1 construct: expressed in transfected cells
Assay: [35S]-GTPγS binding assay of mGluR2 receptor activation
Type: biochemical
Method: A [^35S]-GTPγS binding assay was used to functionally assay mGluR2 receptor activation. The allosteric activator activity of compounds at the human mGluR2 receptor were measured using a [^35S]-GTPγS binding assay with membranes prepared from CHO cells which stably express the human mGluR2. The assay is based upon the principle that agonists bind to G-protein coupled receptors to stimulate GDP-GTP exchange at the G-protein. Since [^35S]-GTPγS is a non-hydrolyzable GTP analog, it can be used to provide an index of GDP-GTP exchange and, thus, receptor activation. The GTPγS binding assay therefore provides a quantitative measure of receptor activation.
Membranes were prepared from CHO cells stably transfected with human mGluR2. Membranes (30 μg protein) were incubated with test compound (3 nM to 300 μM) for 15 minutes at room temperature prior to the addition of 1 μM glutamate, and incubated for 30 min at 30° C. in 500 μl assay buffer (20 mM HEPES, 100 mM NaCl, 10 mM MgCl2), containing 30 μM GDP and 0.1 nM [^35S]-GTPγS (1250 Ci/mmol). Reactions were carried out in triplicate in 2 ml polypropylene 96-well plates. Reactions were terminated by vacuum filtration using a Packard 96-well harvester and Unifilter-96, GF/B filter microplates. The filter plates were washed 4×1.5 ml with ice-cold wash buffer (10 mM sodium phosphate buffer, pH 7.4). The filter plates were dried and 35 μl of scintillation fluid (Microscint 20) was added to each well. The amount of radioactivity bound was determined by counting plates on the Packard TopCount. Data was analyzed using GraphPad Prism, and EC50 and Emax values (relative to the maximum glutamate effect) were calculated using non-linear regression.

[1] = membranes from CHO cells stably expressing human mGluR2, 1 μM glutamate

T1 sequence (Q14416 19-872): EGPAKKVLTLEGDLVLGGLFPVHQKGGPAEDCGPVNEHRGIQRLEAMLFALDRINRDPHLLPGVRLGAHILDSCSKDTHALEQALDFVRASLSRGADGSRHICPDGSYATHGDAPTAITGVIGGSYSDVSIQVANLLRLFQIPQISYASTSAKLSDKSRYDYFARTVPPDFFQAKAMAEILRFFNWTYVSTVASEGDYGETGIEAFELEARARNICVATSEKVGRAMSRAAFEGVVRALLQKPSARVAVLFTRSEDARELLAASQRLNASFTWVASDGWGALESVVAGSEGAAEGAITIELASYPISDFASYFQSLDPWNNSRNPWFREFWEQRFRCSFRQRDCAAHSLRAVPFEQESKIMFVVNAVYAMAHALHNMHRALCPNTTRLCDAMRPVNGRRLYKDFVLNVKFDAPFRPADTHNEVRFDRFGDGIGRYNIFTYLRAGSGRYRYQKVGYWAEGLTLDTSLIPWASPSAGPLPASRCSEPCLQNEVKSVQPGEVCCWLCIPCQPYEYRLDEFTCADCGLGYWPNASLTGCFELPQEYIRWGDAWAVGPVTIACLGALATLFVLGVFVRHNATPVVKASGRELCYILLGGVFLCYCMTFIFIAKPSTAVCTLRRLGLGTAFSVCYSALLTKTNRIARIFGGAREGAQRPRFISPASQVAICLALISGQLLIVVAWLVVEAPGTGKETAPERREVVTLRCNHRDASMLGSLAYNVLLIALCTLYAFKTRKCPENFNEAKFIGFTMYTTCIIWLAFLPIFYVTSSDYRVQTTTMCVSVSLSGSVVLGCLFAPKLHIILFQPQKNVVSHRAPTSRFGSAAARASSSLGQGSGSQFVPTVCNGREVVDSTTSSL

EC50 [1] | EC50 | SMILES
4.68 µM |  | CCN1CCN(c2cc3c(c(OC)c2)C(=O)N(Cc2ccc(OC(F)(F)F)cc2)C3)CC1 [Example 127, 5-(4-Ethylpiperazin-1-yl)-7-methoxy-2-(4-trifluoromethoxy-benzyl)-2,3-dihydroisoindol-1-one]
1.21 µM |  | Cc1cc(N2CCCN(C)CC2)cc2c1C(=O)N(Cc1ccc(OC(F)(F)F)cc1)C2 [Example 113, 7-Methyl-5-(4-methyl-[1,4]-diazepan-1-yl)-2-(4-trifluoromethoxy-benzyl)-2,3-dihydroisoindol-1-one]
 | 0.04 µM | Cc1cc(CC2CCN(Cc3ccc(C#N)cc3)CC2)cc2c1C(=O)N(Cc1ccc(OC(F)(F)F)cc1)C2 [Example 171, 4-{4-[7-methyl-1-oxo-2-(4-trifluorometh-oxy-benzyl)-2,3-dihydro-1H-isoindol-5-ylmethyl]-piperidin-1-ylmethyl}-benzonitrile]
0.37 µM |  | Cc1cc(Br)cc2c1C(=O)N(Cc1ccc(OC(F)(F)F)cc1)C2 [Example 30, 5-Bromo-7-methyl-2-(4-trifluoromethoxy-benzyl)-2,3-dihydro-isoindol-1-one]
3.85 µM |  | Cc1cc(N2CCNCC2)cc2c1C(=O)N(Cc1ccc(OC(F)(F)F)cc1)C2 [Example 123, 7-Methyl-5-piperazin-1-yl-2-(4-trifluoromethoxy-benzyl)-2,3-dihydroisoindol-1-one]
0.3 µM |  | Cc1cc(N2CCC(N(C)C)C2)cc2c1C(=O)N(Cc1ccc(OC(F)(F)F)cc1)C2 (stereo not drawn) [Example 115, 5-(3-dimethylamino-pyrollidin-1-yl)-7-methyl-2-(4-trifluoromethoxy-benzyl)-2,3-dihydroisoindol-1-one]
6.31 µM |  | CCNCc1cc(C)c2c(c1)CN(Cc1ccc(OC(F)(F)F)cc1)C2=O [Example 53, 5-Ethylamino-methyl-7-methyl-2-(4-trifluoromethoxy-benzyl)-2,3-dihydro-isoindol-1-one]
 | 0.14 µM | Cc1cc(CN2CCN(c3ccccn3)CC2)cc2c1C(=O)N(Cc1ccc(OC(F)(F)F)cc1)C2 [Example 167, 7-Methyl-5-(4-pyridin-2-yl-piperazin-1-ylmethyl)-2-(4-trifluorometh-oxy-benzyl)-2,3-dihydro-isoindol-1-one]
0.39 µM |  | Cc1cc(CNCc2ccccc2)cc2c1C(=O)N(Cc1ccc(OC(F)(F)F)cc1)C2 [Example 45, 5-(Benzylamino-methyl)-7-methyl-2-(4-trifluoromethoxy-benzyl)-2,3-dihydro-isoindol-1-one]
0.75 µM |  | Cc1cc(N2CCN(CCCN(C)C)CC2)cc2c1C(=O)N(Cc1ccc(OC(F)(F)F)cc1)C2 [Example 141, 5-[4-(3-Dimethylamino-propyl)-piperazin-1-yl]-7-methyl-2-(4-trifluoro-methoxy-benzyl)-2,3-dihydro-isoindol-1-one]
0.29 µM |  | Cc1cc(-c2cccc(CN(C)C)c2)cc2c1C(=O)N(Cc1ccc(OC(F)(F)F)cc1)C2 [Example 87, 5-(3-Dimethylamino-methyl-phenyl)-7-methyl-2-(4-trifluoromethoxy-benzyl)-2,3-dihydro-isoindol-1-one]
 | 2.12 µM | CNCc1nnc(-c2cc(C)c3c(c2)CN(Cc2ccc(OC(F)(F)F)cc2)C3=O)o1 [Example 181, 7-Methyl-5-(5-methylaminomethyl-[1,3,4]oxadiazol-2-yl)-2-(4-trifluorometh-oxy-benzyl)-2,3-dihydro-isoindol-1-one]
1.45 µM |  | Cc1cc(CNCc2ccccn2)cc2c1C(=O)N(Cc1ccc(OC(F)(F)F)cc1)C2 [Example 40, 7-Methyl-5-{[(pyridine-2-ylmethyl)-amino]-methyl}-2-(4-trifluoromethoxy-benzyl)-2,3-dihydro-isoindol-1-one]
0.68 µM |  | CCN1CCN(c2cc(C)c3c(c2)CN(Cc2ccc(OC(F)(F)F)cc2)C3=O)CC1 [Example 112, 5-(4-Ethylpiperazin-1-yl)-7-methyl-2-(4-trifluoromethoxy-benzyl)-2,3-dihydroisoindol-1-one]

Continued, compound first:

SMILES | EC50 [1] | EC50
Cc1cc(-c2cccnc2)cc2c1C(=O)N(Cc1ccc(Oc3ccccc3)cc1)C2 [Example 104, 7-Methyl-2-(4-phenoxy-benzyl)-5-pyridin-3-yl-2,3-dihydro-isoindol-1-one] | 0.05 µM | 
COc1cc(N2CCN3CCCC3C2)cc2c1C(=O)N(Cc1ccc(OC(F)(F)F)cc1)C2 (stereo not drawn) [Example 124, 5- (Hexahydropyrrolo [1,2-a]pyrazin-2-yl)-7-methoxy-2-(4-trifluoromethoxy-benzyl)-2,3-dihydroisoindol-1-one] | 1.91 µM | 
O=C1c2c(Cl)cc(-c3ccncc3)cc2CN1Cc1ccc(Cl)cc1 [Example 106, 7-Chloro-2-(4-chloro-benzyl)-5-pyridin-4-yl-2,3-dihydro-isoindol-1-one] | 0.13 µM | 
O=C1c2ccc(N3CCN(c4ccncc4)CC3)cc2CN1Cc1ccc(OC(F)(F)F)cc1 [Example 149, 5-(4-Pyridin-4-yl-piperazin-1-yl)-2-(4-trifluoromethoxy-benzyl)-2,3-dihydro isoindol-1-one] | 9.83 µM | 
O=C1c2ccc(N3CCC(CCCc4ccccc4)CC3)cc2CN1Cc1ccc(OC(F)(F)F)cc1 [Example 152, 5-[4-(3-Phenyl-propyl)-piperidin-1-yl]-2-(4-trifluoromethoxy-benzyl)-2,3-dihydro-isoindol-1-one] | 0.51 µM | 
O=C1c2c(Cl)cc(Br)cc2CN1Cc1ccc(Cl)cc1 [Example 34, 5-Bromo-7-chloro-2-(4-chloro-benzyl)-2,3-dihydro-isoindol-1-one] | 0.47 µM | 
O=Cc1cnccc1-c1cc(Cl)c2c(c1)CN(Cc1ccc(Cl)cc1)C2=O [Example 108, 4-[7-Chloro-2-(4-chloro-benzyl)-1-oxo-2,3-dihydro-1H-isoindol-5-yl]-pyridine-3-carbaldehyde] | 0.46 µM | 
Cc1cc(N2CCN(C)CC2)cc2c1C(=O)N(Cc1ccc(Oc3ccccc3)cc1)C2 [Example 114, 7-Methyl-5-(4-methylpiperazin-1-yl)-2-(4-phenoxybenzyl)-2,3-dihydroisoindol-1-one] | 0.28 µM | 
COCCN1CCN(c2cc(Cl)c3c(c2)CN(Cc2ccc(OC(F)(F)F)cc2)C3=O)CC1 [Example 154, 7-Chloro-5-[4-(2-methoxy-ethyl)-piperazin-1-yl]-2-(4-trifluoromethoxy-benzyl)-2,3-dihydro-isoindol-1-one] | 0.21 µM | 
COc1cc(-c2cccnc2)cc2c1C(=O)N(Cc1ccc(Cl)cc1)C2 [Example 101, 2-(4-Chloro-benzyl)-7-methoxy-5-pyridin-3-yl-2,3-dihydro-isoindol-1-one] | 1.16 µM | 
Cc1cc(N2CCN(Cc3ccncc3)CC2)cc2c1C(=O)N(Cc1ccc(Cl)cc1)C2 [Example 143, 2-(4-Chloro-benzyl)-7-methyl-5-(4-pyridin-4-ylmethyl-piperazin-1-yl)-2,3-dihydro-isoindol-1-one] | 0.42 µM | 
Cc1ccc(CN2Cc3cc(-c4cccnc4)ccc3C2=O)cc1 [Example 94, 2-(4-Methylbenzyl)-5-pyridin-3-yl-2,3-dihydroisondol-1-one] | 2.76 µM | 
CN(C)C1CCN(c2cc(Cl)c3c(c2)CN(Cc2ccc(Cl)cc2)C3=O)C1 (stereo not drawn) [Example 135, 7-Chloro-2-(4-chloro-benzyl)-5-(3-dimethylamino-pyrolidin-1-yl)-2,3-dihydro-isoindol-1-one] | 0.61 µM | 
Cc1cc(CC2CCN(C3CCCC3)CC2)cc2c1C(=O)N(Cc1ccc(OC(F)(F)F)cc1)C2 [Example 173, 5-(1-cyclopentyl-piperidin-4-ylmethyl)-7-methyl-2-(4-trifluorometh-oxy-benzyl)-2,3-dihydro-isoindol-1-one] |  | 0.82 µM
O=C(CN1CCN(c2cc(Cl)c3c(c2)CN(Cc2ccc(OC(F)(F)F)cc2)C3=O)CC1)N1CCCC1 [Example 156, 7-Chloro-5-[4-(2-oxo-2-pyrrolidin-1-yl-ethyl)-piperazin-1-yl]-2-(4-trifluoromethoxy-benzyl)-2,3-dihydro-isoindol-1-one] | 0.32 µM | 
O=C1c2c(Cl)cc(N3CCN(c4ccncc4)CC3)cc2CN1Cc1ccc(OC(F)(F)F)cc1 [Example 145, 7-Chloro-5-(4-pyridin-4-yl-piperazin-1-yl)-2-(4-trifluoromethoxy-benzyl)-2,3-dihydro-isoindol-1-one] | 0.4 µM | 
Cc1cc(C(=O)N2CCN(Cc3ccncc3)CC2)cc2c1C(=O)N(Cc1ccc(OC(F)(F)F)cc1)C2 [Example 162, 7-Methyl-5-(4-pyridin-4-ylmethyl-piperazine-1-carbonyl)-2-(4-trifluoromethoxy-benzyl)-2,3-dihydro-isoindol-1-one] | 0.55 µM | 
Cc1cc(N2CCN(CC3CCCN(C)C3)CC2)cc2c1C(=O)N(Cc1ccc(OC(F)(F)F)cc1)C2 (stereo not drawn) [Example 139, 7-Methyl-5-[4-(1-methyl-piperidin-3-ylmethyl)-piperazin-1-yl]-2-(4-tri-fluoromethoxy-benzyl)-2,3-dihydro-isoindol-1-one] | 1.05 µM | 
Cc1cc(CN2CCC(CCCc3ccccc3)CC2)cc2c1C(=O)N(Cc1ccc(OC(F)(F)F)cc1)C2 [Example 54, 7-Methyl-5-[4-(3-phenylpropyl)-piperidin-1-ylmethyl]-2-(4-trifluoromethoxy-benzyl)-2,3-dihydroisoindol-1-one] | 0.1 µM | 
